In patent US6878738B1, “Anti-inflammatory oxo derivatives and hydroxy derivatives of pyrrolizines, and their pharmaceutical use” (Merckle GmbH, priority 1999, dated 2005):
Read-outs that look alike come from different tables or passages of the source.

Key:
5-lipoxygenase = target: T1, 5-lipoxygenase (Homo sapiens, UniProt P09917); experiment: Inhibition of 5-lipoxygenase: LTB4 formation in human granulocytes stimulated with calcium ionophore A 23187, ELISA; format: cell-based; conditions: read-out: IC50 5-LO
T1 construct: Human granulocytes are used as a source of 5-lipoxygenase; endogenous in cells; host or cells: human granulocytes isolated from heparinised blood
T1 sequence (P09917 1-674): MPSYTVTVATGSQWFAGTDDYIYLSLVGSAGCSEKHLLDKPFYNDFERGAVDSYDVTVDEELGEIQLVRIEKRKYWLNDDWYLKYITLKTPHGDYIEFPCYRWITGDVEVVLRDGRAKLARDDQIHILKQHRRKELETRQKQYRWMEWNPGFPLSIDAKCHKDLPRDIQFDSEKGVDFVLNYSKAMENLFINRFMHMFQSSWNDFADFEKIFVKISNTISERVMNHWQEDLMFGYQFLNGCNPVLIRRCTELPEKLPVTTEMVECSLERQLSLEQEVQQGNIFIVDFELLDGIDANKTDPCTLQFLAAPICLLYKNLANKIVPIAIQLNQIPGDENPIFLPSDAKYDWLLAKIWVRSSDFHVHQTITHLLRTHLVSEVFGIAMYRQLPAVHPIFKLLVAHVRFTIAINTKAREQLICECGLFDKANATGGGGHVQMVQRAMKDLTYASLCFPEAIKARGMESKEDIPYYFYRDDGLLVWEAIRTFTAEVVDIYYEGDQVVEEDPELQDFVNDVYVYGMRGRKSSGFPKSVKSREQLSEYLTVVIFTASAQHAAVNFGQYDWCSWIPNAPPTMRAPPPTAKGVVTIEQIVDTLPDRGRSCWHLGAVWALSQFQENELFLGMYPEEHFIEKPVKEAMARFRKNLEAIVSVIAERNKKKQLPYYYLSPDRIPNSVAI
Experimental: Test System for Determination of the Inhibition of 5-Lipoxygenase
Human granulocytes are used as a source of 5-lipoxygenase. By means of stimulation with calcium ionophore A 23187, LTB4 (leukotriene B4) is formed from endogenous arachidonic acid. The granulocytes are isolated and the enzyme reaction is carried out according to known processes (see Arch. Pharm. Med. Chem. 330, 307-312 (1997)).
The blood, protected from clotting with heparin, is centrifuged over a discontinuous Percoll® gradient and the granulocyte layer is removed by pipette. After lysis of the erythrocytes, the granulocytes are washed a number of times and then adjusted to a specific cell count. The enzyme reaction is then started in the presence or absence of the test substance after addition of Ca^2+ using calcium ionophore […]. The synthesis of the leukotrienes is stopped after 1.5 minutes. The samples are centrifuged off and the supernatant is diluted. LTB4 is determined quantitatively by means of ELISA.

Cyclooxygenase-1 = target: T2, Cyclooxygenase-1 (Homo sapiens, UniProt P23219); experiment: Inhibition of cyclooxygenase-1: prostaglandin E2 formed from human platelets after calcium ionophore, ELISA; format: cell-based; conditions: PGE2, read-out: IC50 COX-1
T2 construct: endogenous in cells; host or cells: human platelets isolated over a Percoll gradient
Experimental: Test System for Determination of the Inhibition of Cyclooxygenase-1
In this test system, the amount of prostaglandin E2 formed from human platelets after addition of calcium ionophore is determined by means of ELISA. In this process, the platelets are obtained after centrifugation over a discontinuous Percoll® gradient. The enzyme reaction and the determination of the metabolites formed is carried out in principle as in the determination of 5-lipoxygenase inhibition. Differences exist with respect to the incubation time. Furthermore, the addition of a thromboxane synthase inhibitor is necessary (see Arch. Pharm. Med. Chem. 330, 307-312 (1997)).

[1] = Determination of the partition coefficient n-octanol/water (OECD Guideline No. 117); format: physicochemical
Experimental: Determination of the Partition Coefficient
The partition coefficient P of the compounds was determined in the system n-octanol/water according to the OECD Guidline for Testing Chemicals, No. 117.

[2] = target: T3, COX2 (from sheep placenta) (Ovis aries, UniProt P79208); experiment: Inhibition of cyclooxygenase-2: COX2 stimulated with arachidonic acid, PGE2 by ELISA; format: biochemical; conditions: arachidonic acid 5 μM, read-out: IC50 COX-2
T3 construct: COX2 (from sheep placenta) is preincubated with test substance at 4° C. for 10 min; from tissue; host or cells: sheep placenta
T3 sequence (P79208 17-603): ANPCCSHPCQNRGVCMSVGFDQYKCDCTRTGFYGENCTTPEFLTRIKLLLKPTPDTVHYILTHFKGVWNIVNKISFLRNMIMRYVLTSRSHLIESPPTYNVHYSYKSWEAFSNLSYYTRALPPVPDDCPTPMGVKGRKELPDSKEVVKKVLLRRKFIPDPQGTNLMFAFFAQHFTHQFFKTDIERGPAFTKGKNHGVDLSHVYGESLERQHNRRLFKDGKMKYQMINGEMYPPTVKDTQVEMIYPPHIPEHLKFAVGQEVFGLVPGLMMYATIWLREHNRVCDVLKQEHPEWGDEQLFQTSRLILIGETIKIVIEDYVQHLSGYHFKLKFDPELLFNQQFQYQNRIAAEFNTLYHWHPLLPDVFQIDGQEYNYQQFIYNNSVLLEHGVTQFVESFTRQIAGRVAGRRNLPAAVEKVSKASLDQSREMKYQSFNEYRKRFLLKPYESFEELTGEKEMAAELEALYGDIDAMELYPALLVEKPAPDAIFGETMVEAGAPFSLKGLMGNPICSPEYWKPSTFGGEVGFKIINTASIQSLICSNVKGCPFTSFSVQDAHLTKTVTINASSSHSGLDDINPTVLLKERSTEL
Experimental: Test System for Determination of the Inhibition of Cyclooxygenase-2
COX2 (from sheep placenta) is preincubated with test substance at 4° C. for 10 min, then stimulated with arachidonic acid (5 μM) at 25° C. for 10 min. […] The determination is carried out at 3 dilutions (10^−7, 10^−6, 10^−5 M), and the PGE2 concentrations are quantified by means of ELISA (see Mitchell, J. A. et al. Proc. Nat. Acad. Sci 90: 11693-11697 (1993)).

T2 sequence (P23219 24-599): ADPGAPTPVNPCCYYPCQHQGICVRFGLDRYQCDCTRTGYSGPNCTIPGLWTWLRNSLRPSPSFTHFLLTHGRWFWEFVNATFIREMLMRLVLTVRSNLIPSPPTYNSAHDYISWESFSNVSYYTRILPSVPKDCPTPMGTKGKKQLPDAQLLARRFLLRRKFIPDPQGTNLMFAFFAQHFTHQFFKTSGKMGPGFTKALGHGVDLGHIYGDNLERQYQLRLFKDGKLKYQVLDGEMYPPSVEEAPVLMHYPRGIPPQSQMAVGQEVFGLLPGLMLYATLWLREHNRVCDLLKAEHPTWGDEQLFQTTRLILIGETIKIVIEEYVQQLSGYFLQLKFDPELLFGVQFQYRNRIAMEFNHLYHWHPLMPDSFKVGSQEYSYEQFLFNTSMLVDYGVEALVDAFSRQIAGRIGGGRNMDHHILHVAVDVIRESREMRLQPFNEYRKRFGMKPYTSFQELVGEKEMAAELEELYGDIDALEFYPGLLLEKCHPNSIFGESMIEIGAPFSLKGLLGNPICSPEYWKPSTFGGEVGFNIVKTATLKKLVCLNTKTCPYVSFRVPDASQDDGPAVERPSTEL

IC50 (Cyclooxygenase-1)	chromatographic logP ([1]; pH 2.5, read-out: Log P pH 2.5)	chromatographic logP ([1]; pH 7.5, read-out: Log P pH 7.5)	melting point	IC50 [2]	SMILES	IC50 (5-lipoxygenase)
500 nM	5.1	6.7		7500 nM	COC1c2c(-c3ccccc3)c(-c3ccc(Cl)cc3)c(C)n2CC1(C)C (centres unmarked) [Example 16, 6-(4-Chlorophenyl)-2,3-dihydro-1-methoxy-2,2,5-trimethyl-7-phenyl-1H-pyrrolizine]	
46 nM	3.3	1.1		2100 nM	CC1(C)Cn2c(CC(=O)O)c(-c3ccc(Cl)cc3)c(-c3ccccc3)c2C1=O [Example 18, 6-(4-Chlorophenyl)-2,3-dihydro-2,2-dimethyl-1-oxo-7-phenyl-1H-pyrrolizin-5-ylacetic Acid]	
			193 °C		CC1(C)Cc2c(-c3ccccc3)c(-c3ccc(Cl)cc3)c(OC(=O)c3ccccc3)n2C1 [Example 26, 2-(4-Chlorophenyl)-6,6-dimethyl-1-phenyl-6,7-dihydro-5H-pyrrolizin-3-yl Benzoate]	

More lines, now with the values behind:

SMILES	IC50 (Cyclooxygenase-1)	chromatographic logP ([1]; pH 2.5, read-out: Log P pH 2.5)	chromatographic logP ([1]; pH 7.5, read-out: Log P pH 7.5)	melting point	IC50 [2]	IC50 (5-lipoxygenase)
CC1(C)Cn2cc(-c3ccc(Cl)cc3)c(-c3ccccc3)c2C1=O [Example 6, 6-(4-Chlorophenyl)-2,3-dihydro-2,2-dimethyl-1-oxo-7-phenyl-1H-pyrrolizine]	950 nM	5	5.1			230 nM
CCOC(=O)C(=O)c1c(-c2ccc(Cl)cc2)c(-c2ccccc2)c2n1CC(C)(C)C2O (centres unmarked) [Example 11, Ethyl 6-(4-Chlorophenyl)-2,3-dihydro-1-hydroxy-2,2-dimethyl-7-phenyl-1H-pyrrolizin-5-yl-2-oxoacetate]				193 °C		
COC1c2c(-c3ccccc3)c(-c3ccc(Cl)cc3)c(CC(=O)O)n2CC1(C)C (centres unmarked) [Example 14, 6-(4-Chlorophenyl)-2,3-dihydro-1-methoxy-2,2-dimethyl-7-phenyl-1H-pyrrolizin-5-ylacetic Acid]	60 nM	4.5	1.7			
Cc1c(-c2ccc(Cl)cc2)c(-c2ccccc2)c2n1CC(C)(C)C2O (centres unmarked) [Example 15, 6-(4-Chlorophenyl)-2,3-dihydro-1-hydroxy-2,2,5-trimethyl-7-phenyl-1H-pyrrolizine]				133 °C		
CC1(C)Cc2c(-c3ccccc3)c(-c3ccc(Cl)cc3)c(CC(=O)O)n2C1 [ML 3000, reference compound]	210 nM	4.8	1.9		4700 nM	180 nM
